According to ChEMBL document CHEMBL1201862, “PubChem BioAssay data set” (2004):
Activity calls are given as the source filed them.

Key:
[1] = target: Peroxisome proliferator-activated receptor gamma/Nuclear receptor coactivator 1 (Homo sapiens, UniProt P37231); format: functional;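 further: agonist potency as compounds enhance coactivator SRC-1 recruitment to PPARgamma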
[2] = target: Peroxisome proliferator-activated receptor gamma/Nuclear receptor coactivator 3 (Homo sapiens, UniProt P37231); format: functional;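 further: agonist potency for raising coactivator recruitment to the receptor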
[3] = target: Peroxisome proliferator-activated receptor gamma/Nuclear receptor coactivator 2 (Homo sapiens, UniProt P37231); format: functional;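 further: agonist potency for raising coactivator recruitment to the receptor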
NADPH oxidase 1 = target: T1, NADPH oxidase 1 (Homo sapiens, UniProt Q9Y5S8); format: functional, cell-based;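 further: Cell-based assay with luminescence read-out, IC50 derived from inhibitor dose-response curves; intracellular ROS from endogenous NOX1 in intact HT29 colon cancer cells; potency of inhibitors that lower the ROS luminescence signal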
T1 sequence (Q9Y5S8 whole entry): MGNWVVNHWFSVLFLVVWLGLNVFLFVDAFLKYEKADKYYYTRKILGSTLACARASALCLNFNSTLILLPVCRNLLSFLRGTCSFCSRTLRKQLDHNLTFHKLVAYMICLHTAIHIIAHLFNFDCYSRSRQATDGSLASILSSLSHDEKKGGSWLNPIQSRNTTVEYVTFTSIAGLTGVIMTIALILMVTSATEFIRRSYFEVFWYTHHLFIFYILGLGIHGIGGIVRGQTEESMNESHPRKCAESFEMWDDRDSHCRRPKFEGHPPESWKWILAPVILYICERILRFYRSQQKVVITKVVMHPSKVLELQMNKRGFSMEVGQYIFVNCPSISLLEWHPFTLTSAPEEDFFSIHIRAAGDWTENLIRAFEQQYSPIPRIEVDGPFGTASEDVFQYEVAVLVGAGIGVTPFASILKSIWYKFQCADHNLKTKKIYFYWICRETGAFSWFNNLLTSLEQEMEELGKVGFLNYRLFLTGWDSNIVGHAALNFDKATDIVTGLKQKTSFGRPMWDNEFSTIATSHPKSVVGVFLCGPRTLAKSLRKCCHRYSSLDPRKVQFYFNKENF

[4] = target: Beta-2 adrenergic receptor (Homo sapiens, UniProt P07550); assay: beta2AR agonists driving receptor internalization, dose response, cell-based, FAP fluorogen, flow cytometry, cherry pick 1 (AID 588763); format: functional
Beta-2 adrenergic receptor, sequence (P07550 whole entry): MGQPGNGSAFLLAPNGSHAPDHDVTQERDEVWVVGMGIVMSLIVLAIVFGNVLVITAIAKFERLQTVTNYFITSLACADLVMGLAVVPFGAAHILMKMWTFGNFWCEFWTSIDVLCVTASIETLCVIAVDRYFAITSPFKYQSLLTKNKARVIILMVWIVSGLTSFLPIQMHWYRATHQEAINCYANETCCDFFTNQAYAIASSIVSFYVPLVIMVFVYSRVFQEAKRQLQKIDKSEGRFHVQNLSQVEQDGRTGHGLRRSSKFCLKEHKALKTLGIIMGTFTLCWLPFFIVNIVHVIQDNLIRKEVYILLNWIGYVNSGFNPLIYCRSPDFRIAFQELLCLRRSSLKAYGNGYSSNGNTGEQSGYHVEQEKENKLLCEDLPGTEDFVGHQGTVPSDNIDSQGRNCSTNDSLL

Bcl-2-like protein 10 = target: T2, Bcl-2-like protein 10 (Homo sapiens, UniProt Q9HD36); assay: Biochemical TR3 FP assay of Bcl-B inhibitor potency, EC50 (AID 1243); format: functional
T2 sequence (Q9HD36 whole entry): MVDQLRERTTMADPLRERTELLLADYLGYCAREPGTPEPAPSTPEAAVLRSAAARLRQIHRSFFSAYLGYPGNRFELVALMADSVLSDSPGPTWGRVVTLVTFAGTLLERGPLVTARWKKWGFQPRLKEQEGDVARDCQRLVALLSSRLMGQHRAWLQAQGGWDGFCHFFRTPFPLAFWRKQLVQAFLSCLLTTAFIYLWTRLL

[5] = target: E3 ubiquitin-protein ligase XIAP (Homo sapiens, UniProt P98170); assay: Counter Screen using XIAP-Bir3 for Chemical Antagonists of Bir1/2 domains of IAP-family anti-apoptotic proteins. [Related pubchem assays (depositor defined):AID1018, AID1449, AID1514, AID1638, AID1749, AID1750, AID488957, AID488963]
E3 ubiquitin-protein ligase XIAP, sequence (P98170 whole entry): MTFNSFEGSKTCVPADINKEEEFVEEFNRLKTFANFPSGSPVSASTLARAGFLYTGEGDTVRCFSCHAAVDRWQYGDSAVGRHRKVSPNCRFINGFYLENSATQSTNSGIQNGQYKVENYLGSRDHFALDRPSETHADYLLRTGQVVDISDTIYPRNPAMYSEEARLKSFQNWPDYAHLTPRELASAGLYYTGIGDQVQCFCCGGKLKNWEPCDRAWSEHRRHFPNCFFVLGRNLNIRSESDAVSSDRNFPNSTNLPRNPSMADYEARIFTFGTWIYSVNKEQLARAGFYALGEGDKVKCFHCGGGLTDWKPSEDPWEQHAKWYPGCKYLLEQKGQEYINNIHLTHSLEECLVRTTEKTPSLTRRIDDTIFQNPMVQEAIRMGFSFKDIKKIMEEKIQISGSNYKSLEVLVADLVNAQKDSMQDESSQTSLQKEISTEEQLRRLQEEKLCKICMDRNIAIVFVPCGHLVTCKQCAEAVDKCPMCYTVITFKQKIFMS

[6] = target: T3, Voltage-gated N-type calcium channel alpha-1B subunit/Amyloid beta A4 precursor protein-binding family A member 1 (Homo sapiens, UniProt Q00975+Q02410); format: protein assay
[7] = target: T3, Voltage-gated N-type calcium channel alpha-1B subunit/Amyloid beta A4 precursor protein-binding family A member 1; format: protein assay; remark: listed apart in the source
[8] = target: DNA dC->dU-editing enzyme APOBEC-3G (Homo sapiens, UniProt Q9HC16); assay: Dose Response confirmation of small molecule APOBEC3G DNA Deaminase Inhibitors via a fluorescence-based single-stranded DNA deaminase assay. [Related pubchem assays (depositor defined):AID493012, AID493028]; format: functional
Leucine aminopeptidase = target: T4, Leucine aminopeptidase (Plasmodium falciparum 3D7, UniProt Q8IL11); assay: P. falciparum M17LAP inhibitors, primary screen, biochemical, fluorogenic H-Leu-NHMec substrate, 1536-well (AID 1619); format: functional
T4 sequence (Q8IL11 whole entry): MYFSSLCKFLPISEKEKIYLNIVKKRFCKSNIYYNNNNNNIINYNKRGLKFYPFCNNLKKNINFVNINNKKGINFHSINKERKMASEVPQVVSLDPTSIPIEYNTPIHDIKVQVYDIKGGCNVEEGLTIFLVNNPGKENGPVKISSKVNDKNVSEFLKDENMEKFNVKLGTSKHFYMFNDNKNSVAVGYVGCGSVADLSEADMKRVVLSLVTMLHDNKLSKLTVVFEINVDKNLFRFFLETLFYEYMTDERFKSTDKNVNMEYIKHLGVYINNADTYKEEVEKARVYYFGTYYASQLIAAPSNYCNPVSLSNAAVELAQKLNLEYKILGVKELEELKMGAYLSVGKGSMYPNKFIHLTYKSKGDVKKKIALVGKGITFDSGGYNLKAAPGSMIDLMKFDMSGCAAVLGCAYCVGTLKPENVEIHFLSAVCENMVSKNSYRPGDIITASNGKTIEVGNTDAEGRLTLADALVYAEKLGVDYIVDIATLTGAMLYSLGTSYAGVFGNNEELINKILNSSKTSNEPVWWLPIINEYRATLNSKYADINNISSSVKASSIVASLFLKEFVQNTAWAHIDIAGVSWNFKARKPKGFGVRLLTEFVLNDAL

[9] = target: DNA dC->dU-editing enzyme APOBEC-3A (Homo sapiens, UniProt P31941); assay: APOBEC3A DNA deaminase inhibitors, dose response, biochemical (AID 504722); format: functional
DNA dC->dU-editing enzyme APOBEC-3A, sequence (P31941 whole entry): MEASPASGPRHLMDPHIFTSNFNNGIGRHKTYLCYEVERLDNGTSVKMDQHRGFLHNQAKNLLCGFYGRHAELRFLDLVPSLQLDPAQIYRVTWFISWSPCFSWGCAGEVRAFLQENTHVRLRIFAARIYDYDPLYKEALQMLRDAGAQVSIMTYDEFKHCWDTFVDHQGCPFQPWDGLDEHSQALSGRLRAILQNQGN

[10] = target: Scavenger receptor class B member 1 (Mus musculus, UniProt Q61009); assay: inhibitors of SR-BI mediated HDL lipid uptake, dose response, ldlA[mSR-BI] cells, fluorescence, cherry pick (AID 493194); format: functional, cell-based;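 further: cellular uptake of fluorescent DiI-labeled HDL measured as cell fluorescence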
Scavenger receptor class B member 1, sequence (Q61009 whole entry): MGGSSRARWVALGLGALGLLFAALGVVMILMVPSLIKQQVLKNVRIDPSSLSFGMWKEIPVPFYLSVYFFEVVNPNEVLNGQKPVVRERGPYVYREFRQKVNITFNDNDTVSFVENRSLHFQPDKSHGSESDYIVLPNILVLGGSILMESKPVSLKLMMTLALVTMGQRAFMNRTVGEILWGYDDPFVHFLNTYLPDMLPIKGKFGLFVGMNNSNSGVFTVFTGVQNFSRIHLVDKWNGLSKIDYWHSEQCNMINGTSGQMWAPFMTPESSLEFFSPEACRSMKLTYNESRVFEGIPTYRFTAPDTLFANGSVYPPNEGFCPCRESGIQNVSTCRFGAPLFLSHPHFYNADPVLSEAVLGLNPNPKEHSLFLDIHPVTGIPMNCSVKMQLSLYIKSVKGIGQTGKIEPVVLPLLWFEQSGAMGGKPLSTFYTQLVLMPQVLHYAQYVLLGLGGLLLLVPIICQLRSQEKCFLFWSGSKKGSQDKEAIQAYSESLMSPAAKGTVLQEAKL

[11] = control 3'UTR Renilla luciferase suppression, dose response, counter-screen for Shn3 inhibitor project, cell-based, Clone20-Shn3RL, cherry-picked (AID 624133); format: functional
[12] = growth suppression of beta-catenin-knockout colon cells, dose response, cell-based, HCT116, human colon tumor (AID 1045); format: functional;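 further: HCT116 colon tumor cells with beta catenin knocked out; cells exposed to compound for 60 hours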
[13] = HepG2 cell cytotoxicity, dose response, cytotoxicity control for Shn3 inhibitor project, CellTiter-Glo, cherry-picked (AID 624134); format: functional, cell-based
[14] = Shn3 3'UTR reporter inhibitors, dose response, cell-based, Clone20 osteoblasts, firefly luciferase, cherry-picked (AID 624132); format: functional;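 further: firefly luciferase luminescence from reporter carrying the Shn3 3'UTR in osteoblasts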
[15] = growth suppression of PTEN-null colon cells, dose response, cell-based, HCT116 PTEN knockout (AID 1047); format: functional;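 further: HCT116 colon tumor cells with PTEN knocked out; cells exposed to compound for 60 hours before readout; potency for loss of cell viability measured by luminescence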
[16] = target: Glyceraldehyde-3-phosphate dehydrogenase (Homo sapiens, UniProt P04406)
Glyceraldehyde-3-phosphate dehydrogenase, sequence (P04406 whole entry): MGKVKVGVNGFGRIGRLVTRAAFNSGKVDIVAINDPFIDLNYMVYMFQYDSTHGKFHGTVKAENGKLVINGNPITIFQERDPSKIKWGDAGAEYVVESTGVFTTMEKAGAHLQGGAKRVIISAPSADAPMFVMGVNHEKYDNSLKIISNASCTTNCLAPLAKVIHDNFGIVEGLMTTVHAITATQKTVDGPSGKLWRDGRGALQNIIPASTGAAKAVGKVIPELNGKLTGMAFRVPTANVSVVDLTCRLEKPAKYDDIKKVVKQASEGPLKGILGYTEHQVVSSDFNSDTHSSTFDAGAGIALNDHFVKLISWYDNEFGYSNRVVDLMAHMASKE

[17] = target: T5, Tyrosine-protein phosphatase non-receptor type 7 (Homo sapiens, UniProt P35236); format: functional
T5 sequence (P35236 whole entry): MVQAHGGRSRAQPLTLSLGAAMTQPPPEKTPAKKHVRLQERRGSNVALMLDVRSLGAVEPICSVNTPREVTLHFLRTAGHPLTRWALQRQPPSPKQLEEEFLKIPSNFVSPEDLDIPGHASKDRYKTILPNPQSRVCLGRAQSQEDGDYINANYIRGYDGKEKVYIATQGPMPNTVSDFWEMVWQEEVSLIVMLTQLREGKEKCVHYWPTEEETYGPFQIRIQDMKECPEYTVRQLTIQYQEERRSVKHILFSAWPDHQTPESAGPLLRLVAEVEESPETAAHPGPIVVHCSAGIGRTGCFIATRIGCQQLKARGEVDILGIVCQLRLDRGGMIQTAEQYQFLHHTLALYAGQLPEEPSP

[18] = target: T6, Dual specificity protein phosphatase 6 (Rattus norvegicus, UniProt Q64346); format: functional
T6 sequence (Q64346 whole entry): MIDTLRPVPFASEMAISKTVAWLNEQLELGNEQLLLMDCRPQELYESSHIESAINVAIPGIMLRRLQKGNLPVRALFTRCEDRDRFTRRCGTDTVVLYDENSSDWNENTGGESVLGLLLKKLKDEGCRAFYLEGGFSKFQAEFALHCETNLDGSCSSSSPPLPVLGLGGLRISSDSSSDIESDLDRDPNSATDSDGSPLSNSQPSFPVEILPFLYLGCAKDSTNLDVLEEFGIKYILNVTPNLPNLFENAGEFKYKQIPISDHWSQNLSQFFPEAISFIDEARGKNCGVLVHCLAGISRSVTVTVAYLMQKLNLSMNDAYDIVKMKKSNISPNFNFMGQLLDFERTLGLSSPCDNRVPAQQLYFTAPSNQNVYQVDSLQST

[19] = target: T6, Dual specificity protein phosphatase 6
Mucolipin-3 = Mucolipin-3 (Homo sapiens, UniProt Q8TDD5); assay: Dose response cell-based high-throughput screening assay for agonists of the transient receptor potential channel ML3 (TRPML3). [Related pubchem assays: 1526, 1424, 1448 ]; format: functional
Mucolipin-3, sequence (Q8TDD5 whole entry): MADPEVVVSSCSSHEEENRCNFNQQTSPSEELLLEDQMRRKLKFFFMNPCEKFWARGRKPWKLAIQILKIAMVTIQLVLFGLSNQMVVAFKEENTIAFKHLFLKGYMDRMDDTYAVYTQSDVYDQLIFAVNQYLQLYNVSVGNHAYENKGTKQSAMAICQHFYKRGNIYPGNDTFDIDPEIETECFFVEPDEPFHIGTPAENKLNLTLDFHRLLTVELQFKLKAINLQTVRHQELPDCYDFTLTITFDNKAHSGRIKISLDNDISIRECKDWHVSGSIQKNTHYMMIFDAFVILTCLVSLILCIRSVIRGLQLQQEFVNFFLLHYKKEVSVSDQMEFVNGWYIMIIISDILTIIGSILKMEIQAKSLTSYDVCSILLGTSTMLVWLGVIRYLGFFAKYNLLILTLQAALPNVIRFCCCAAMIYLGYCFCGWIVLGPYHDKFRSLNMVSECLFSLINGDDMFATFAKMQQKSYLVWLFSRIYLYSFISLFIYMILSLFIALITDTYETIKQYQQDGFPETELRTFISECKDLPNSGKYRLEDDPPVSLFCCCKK

Ion channel NompC = Ion channel NompC (Danio rerio, UniProt Q7T1G6); assay: Fluorescence counterscreen assay for TRPML3 agonists: dose response cell-based high-throughput screening assay to identify agonists of the transient receptor potential channel N1 (TRPN1). [Related pubchem assays: 1526, 1424, 1448 ]; format: functional
Ion channel NompC, sequence (Q7T1G6 whole entry): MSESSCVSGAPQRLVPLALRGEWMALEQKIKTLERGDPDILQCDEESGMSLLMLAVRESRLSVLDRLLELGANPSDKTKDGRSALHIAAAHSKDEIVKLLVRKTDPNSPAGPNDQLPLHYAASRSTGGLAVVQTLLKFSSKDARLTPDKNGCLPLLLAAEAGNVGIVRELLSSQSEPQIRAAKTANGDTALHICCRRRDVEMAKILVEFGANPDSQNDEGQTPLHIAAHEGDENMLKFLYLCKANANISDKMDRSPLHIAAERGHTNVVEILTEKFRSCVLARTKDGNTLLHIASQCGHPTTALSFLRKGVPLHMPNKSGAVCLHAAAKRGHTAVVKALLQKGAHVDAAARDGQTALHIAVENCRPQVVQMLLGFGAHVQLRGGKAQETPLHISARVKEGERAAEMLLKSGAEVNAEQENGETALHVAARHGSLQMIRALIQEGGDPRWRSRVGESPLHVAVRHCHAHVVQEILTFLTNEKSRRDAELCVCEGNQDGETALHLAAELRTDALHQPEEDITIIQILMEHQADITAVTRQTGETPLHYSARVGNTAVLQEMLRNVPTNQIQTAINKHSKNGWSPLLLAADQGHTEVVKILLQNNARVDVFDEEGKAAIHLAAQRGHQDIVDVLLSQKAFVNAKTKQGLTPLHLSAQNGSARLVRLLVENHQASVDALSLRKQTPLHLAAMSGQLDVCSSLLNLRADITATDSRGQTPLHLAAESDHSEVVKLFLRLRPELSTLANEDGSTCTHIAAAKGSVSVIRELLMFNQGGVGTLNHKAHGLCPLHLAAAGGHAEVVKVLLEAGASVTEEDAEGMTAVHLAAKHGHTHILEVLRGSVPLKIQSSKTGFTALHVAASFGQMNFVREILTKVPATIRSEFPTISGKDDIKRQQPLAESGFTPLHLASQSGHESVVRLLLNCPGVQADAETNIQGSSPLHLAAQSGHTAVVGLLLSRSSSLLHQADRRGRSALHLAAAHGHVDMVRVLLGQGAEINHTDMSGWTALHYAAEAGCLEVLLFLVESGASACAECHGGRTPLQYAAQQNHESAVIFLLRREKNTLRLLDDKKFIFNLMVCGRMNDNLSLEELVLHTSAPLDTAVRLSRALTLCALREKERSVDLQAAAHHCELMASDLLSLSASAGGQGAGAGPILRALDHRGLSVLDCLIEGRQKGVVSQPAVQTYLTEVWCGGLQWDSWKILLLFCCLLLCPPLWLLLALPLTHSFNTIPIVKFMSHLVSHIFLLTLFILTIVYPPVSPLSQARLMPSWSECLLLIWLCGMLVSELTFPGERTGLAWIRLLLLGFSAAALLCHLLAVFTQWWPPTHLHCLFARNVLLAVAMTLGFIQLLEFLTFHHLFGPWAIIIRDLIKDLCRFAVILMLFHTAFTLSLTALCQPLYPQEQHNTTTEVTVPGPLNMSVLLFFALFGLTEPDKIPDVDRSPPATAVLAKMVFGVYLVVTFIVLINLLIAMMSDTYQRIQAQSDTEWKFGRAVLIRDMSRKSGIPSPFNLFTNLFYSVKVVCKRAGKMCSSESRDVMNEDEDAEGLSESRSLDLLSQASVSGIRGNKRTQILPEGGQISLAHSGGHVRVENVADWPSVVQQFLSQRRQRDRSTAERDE

Estrogen receptor = target: T7, Estrogen receptor (Homo sapiens, UniProt P03372);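 further: potency for inhibiting coactivator peptide recruitment to the receptor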
T7 sequence (P03372 whole entry): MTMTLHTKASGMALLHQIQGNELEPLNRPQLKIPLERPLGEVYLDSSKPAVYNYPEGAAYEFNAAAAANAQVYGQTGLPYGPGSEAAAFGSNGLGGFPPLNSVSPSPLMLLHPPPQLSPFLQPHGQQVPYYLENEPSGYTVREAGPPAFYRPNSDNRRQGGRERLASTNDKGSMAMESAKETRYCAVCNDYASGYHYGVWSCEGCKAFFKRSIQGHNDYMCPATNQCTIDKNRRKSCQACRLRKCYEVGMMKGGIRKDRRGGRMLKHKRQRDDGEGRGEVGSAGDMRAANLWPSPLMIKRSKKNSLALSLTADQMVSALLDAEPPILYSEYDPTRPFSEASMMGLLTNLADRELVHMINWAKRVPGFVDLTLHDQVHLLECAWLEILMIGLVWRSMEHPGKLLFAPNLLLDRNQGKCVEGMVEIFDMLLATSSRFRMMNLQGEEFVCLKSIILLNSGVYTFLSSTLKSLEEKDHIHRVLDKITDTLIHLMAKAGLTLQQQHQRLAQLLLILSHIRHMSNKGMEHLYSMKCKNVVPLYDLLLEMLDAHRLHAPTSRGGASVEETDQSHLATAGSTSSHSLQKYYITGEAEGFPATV

Estrogen receptor beta [20] = target: T8, Estrogen receptor beta (Homo sapiens, UniProt Q92731);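 further: recombinant ER-beta bound to coactivator SRC1 peptide in presence of estradiol agonist; inhibitors block coactivator peptide binding and lower the FRET signal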
T8 sequence (Q92731 whole entry): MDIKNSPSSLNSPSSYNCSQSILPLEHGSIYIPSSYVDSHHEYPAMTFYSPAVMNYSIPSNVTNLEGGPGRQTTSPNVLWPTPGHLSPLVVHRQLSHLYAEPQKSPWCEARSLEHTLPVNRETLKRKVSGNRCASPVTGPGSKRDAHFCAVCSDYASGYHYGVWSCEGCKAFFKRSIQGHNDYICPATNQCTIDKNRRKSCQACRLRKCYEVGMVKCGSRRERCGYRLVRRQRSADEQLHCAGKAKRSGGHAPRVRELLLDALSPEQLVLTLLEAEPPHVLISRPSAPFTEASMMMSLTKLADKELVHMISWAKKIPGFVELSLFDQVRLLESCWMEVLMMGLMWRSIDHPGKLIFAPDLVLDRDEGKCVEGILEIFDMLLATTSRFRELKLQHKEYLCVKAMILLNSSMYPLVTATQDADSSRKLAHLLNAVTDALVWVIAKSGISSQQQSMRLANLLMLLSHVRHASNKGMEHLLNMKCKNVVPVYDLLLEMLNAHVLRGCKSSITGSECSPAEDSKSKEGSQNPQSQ

Melanocortin receptor 4 = Melanocortin receptor 4 (Homo sapiens, UniProt P32245); format: functional, cell-based;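 further: Cell-based assay with luminescence read-out, confirmatory dose-response testing for agonist activity of biased ligands at MC4R; human U2OS cells with tagged receptor and beta-arrestin; potency of agonists that increase receptor coupling to beta-arrestin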
Melanocortin receptor 4, sequence (P32245 whole entry): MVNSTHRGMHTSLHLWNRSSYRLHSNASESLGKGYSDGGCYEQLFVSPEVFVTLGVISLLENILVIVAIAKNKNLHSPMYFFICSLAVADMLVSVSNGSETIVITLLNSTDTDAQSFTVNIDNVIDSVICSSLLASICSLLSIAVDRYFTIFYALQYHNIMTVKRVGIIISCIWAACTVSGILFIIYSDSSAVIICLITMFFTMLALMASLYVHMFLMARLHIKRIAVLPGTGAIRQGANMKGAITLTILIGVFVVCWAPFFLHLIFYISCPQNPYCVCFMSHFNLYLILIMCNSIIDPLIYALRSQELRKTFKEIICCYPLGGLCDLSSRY

Estrogen receptor beta [21] = target: T8, Estrogen receptor beta; assay: ERβ–SRC-3 coactivator interaction inhibitors, confirmation, orthogonal assay, biochemical, ELISA, streptavidin-HRP readout (AID 1060)

COc1cc(C(=S)N2CCOCC2)cc(OC)c1OC(=O)c1cc([N+](=O)[O-])c(C)c([N+](=O)[O-])c1
EC50 [1]: > 79.4 µM (not active) | EC50 [2]: > 79.4 µM (not active) | EC50 [3]: > 79.4 µM (not active)

O=C(Cc1ccccc1)NNC(=O)Cc1ccccc1
IC50 (NADPH oxidase 1): > 17 µM (not active)

CCCCCCN1C(=O)NC(=O)/C(=C\Nc2c(C)n(C)n(-c3ccccc3)c2=O)C1=O
EC50 [1]: > 79.4 µM (not active) | EC50 [2]: > 79.4 µM (not active) | EC50 [4]: 1.31 µM (active) | EC50 [3]: > 79.4 µM (not active)

Cc1cc(C)nc(/N=C(\N)Nc2cccc(N)c2)n1
EC50 (Bcl-2-like protein 10): 5.45 µM (active)

O=c1[nH]n(-c2ccc([N+](=O)[O-])cc2)c(=O)c2ccccc12
IC50 [5]: > 20 µM (inactive)

O=C1C=CC2=C3Oc4c(ccc5cc(O)ccc45)C(c4ccccc4C(=O)O)C3C=CC2=C1 (stereo not given)
EC50 (Bcl-2-like protein 10): 1.68 µM (active)

CN(CCOC(=O)/C=C/c1ccco1)Cc1ccccc1
IC50 [6]: 18.5 µM (active) | IC50 [7]: 29.1 µM (active)

CCOc1ccc(N2C(=O)CC(Sc3n[nH]c(-c4ccccc4)n3)C2=O)cc1 (stereo not given)
IC50 [8]: 14 µM (active) | IC50 (Leucine aminopeptidase): 11.1 µM (active) | IC50 [9]: > 100 µM (inactive)

O=C(Nc1ccc(Cl)c(Cl)c1)Nc1ccc(N2CCCC2)c(S(=O)(=O)Nc2ccccc2Cl)c1
AC50 [10]: 12.7 µM (active) | AC50 [11]: 11.4 µM (active) | EC50 [12]: 3.8 µM (active) | AC50 [13]: 27 µM (active) | AC50 [14]: 5.13 µM (active) | EC50 [15]: 3.35 µM (active)

CCCCCCCCCCCCCCCCCCC#CCCCCCCCCCCCC(=O)O
IC50 [16]: > 100 µM (not active) | IC50 [17]: 28.3 µM (active) | IC50 [18]: > 100 µM (inactive) | IC50 [19]: > 100 µM (inactive)

Cn1c(=O)n(-c2ccc(Cl)cc2)c(=O)n([C@@H](Cc2ccccc2)C(N)=O)c1=O
IC50 [16]: > 100 µM (not active) | IC50 [17]: > 100 µM (not active) | IC50 [18]: > 100 µM (inactive) | IC50 [19]: > 100 µM (inactive)

Cc1ccc(S(=O)(=O)N2C(=S)SCC2(C)C)cc1
EC50 (Mucolipin-3): 7.22 µM (active) | EC50 (Ion channel NompC): > 29.9 µM (not active)

CCOc1ccccc1N1CCN(S(=O)(=O)c2ccc(Cl)s2)CC1
EC50 (Mucolipin-3): 8.16 µM (active) | EC50 (Ion channel NompC): > 29.9 µM (not active)

O=C(NNC(=O)c1cc(Br)ccc1O)c1csc(N2CCOCC2)n1
AC50 [10]: 2.75 µM (active)

CCN1C(=O)/C(=C2/Sc3ccc(OC)cc3N2C)S/C1=N\c1cccc(O)c1
IC50 (Estrogen receptor): > 50 µM (not active) | IC50 (Estrogen receptor beta [20]): > 50 µM (not active) | EC50 (Melanocortin receptor 4): > 89.2 µM (inactive) | IC50 (Estrogen receptor beta [21]): 0.0604 µM (not active)

CN(C)CCCN1c2ccccc2Sc2ccc(Cl)cc21 [CHLORPROMAZINE]
IC50 (NADPH oxidase 1): > 17 µM (not active)
